ChEMBL document CHEMBL1156324, “Purine derivatives as potent gamma-secretase modulators” (Bioorg Med Chem Lett, 2010)

Tests used:
[1] = Activity at gamma-secretase expressed in human SH-SY5Y cells assessed as inhibition of amyloid beta 42 production by HTRF immunoassay; type: cell-based
[2] = Activity at gamma-secretase expressed in human SH-SY5Y cells assessed as inhibition of amyloid beta 40 production by HTRF immunoassay; type: cell-based
[3] = test system: Mus musculus; assay: Inhibition of Abeta42 production in APP-YAC transgenic mouse brain at 100 mg/kg, po after 6 hrs; type: functional; conditions: read-out: INH
[4] = biological target: Gamma-secretase; assay: Inhibition of gamma-secretase-mediated Notch deltaE cleavage in human HeLa cells by luciferase assay; type: cell-based
[5] = Drug level in APP-YAC transgenic mouse brain at 100 mg/kg, po after 6 hrs; type: ADME, organism-based; set-up: dose 100 mg/kg, route oral; conditions: read-out: Drug uptake
[6] = biological target: Gamma-secretase (Homo sapiens) (UniProt Q96BI3+Q9NZ42+Q8WW43+P49768+Q92542+P49810); assay: Selectivity ratio, IC50 for human gamma-secretase-mediated Notch deltaE cleavage to IC50 for gamma-secretase-mediated amyloid beta 42 production; type: protein-complex assay
[7] = Drug level in APP-YAC transgenic mouse plasma at 100 mg/kg, po after 6 hrs; type: ADME, organism-based; set-up: dose 100 mg/kg, route oral; conditions: read-out: Drug uptake

Row | Structure (SMILES) | IC50 [1] | IC50 [2] | IC50 [4] | concentration at 6 h [5] | Ratio IC50 [6] | concentration at 6 h [7] | inhibition in vivo at 100 mg/kg [3]
1 | Cc1cc(OC2CCN(c3nc(Nc4cc(C(C)(C)C)ccc4C)c4c(ncn4C)n3)CC2)ncn1 | 16 nM | 120 nM | 13 µM | 7.8 µM | 810 | 27 µM | 69%
2 | Cc1ccc(C(C)(C)C)cc1Nc1nc(N2CCC(Cc3ccncc3)CC2)nc2ncn(C)c12 | 30 nM | 310 nM |  |  |  |  | 
3 | Cc1ccc(C(C)(C)C)cc1Nc1nc(N2CCC(Oc3ccncc3)CC2)nc2ncn(C)c12 | 9.4 nM | 57 nM |  |  |  |  | 
4 | Cc1ccc(C(C)(C)C)cc1Nc1nc(NCCc2ccncc2)nc2ncn(C)c12 | 36 nM | 250 nM |  |  |  |  | 
5 | COc1ccc(N2CCN(c3nc(Nc4cc(C(C)(C)C)ccc4C)c4c(ncn4C)n3)CC2(C)C)cc1 | 21 nM | 350 nM | > 50 µM | 7.8 µM | > 2400 | 23 µM | 73%
6 | COc1ccc(N2CCN(c3nc(Nc4cc(C(C)(C)C)ccc4C)c4c(n3)nc(C(F)(F)F)n4C)CC2(C)C)cc1 | 50 nM | 1000 nM | > 50 µM |  | > 1000 |  | 
7 | COc1ccc(N2CCN(c3nc(Nc4cc(C(C)(C)C)ccc4C)cc(OC)n3)CC2(C)C)cc1 | 260 nM | 5700 nM |  |  |  |  | 
8 | COc1ccc(N2CCN(c3nc(Nc4cc(C(C)(C)C)ccc4C)c4c(ncn4C)n3)CC2(C)C)cc1F | 21 nM | 270 nM |  |  |  |  | 
9 | COc1ccc(N2CCN(c3nc(Nc4cc(C(C)(C)C)ccc4C)c4[nH]cnc4n3)CC2(C)C)cc1 | 68 nM | 1000 nM |  |  |  |  | 
10 | CCc1ccc(N2CCN(c3nc(Nc4cc(C(C)(C)C)ccc4C)c4c(ncn4C)n3)CC2)cc1 | 810 nM | 3900 nM |  |  |  |  | 
11 | COc1ccc(N2CCCN(c3nc(Nc4cc(C(C)(C)C)ccc4C)c4c(ncn4C)n3)CC2)cc1 | 380 nM | 4100 nM |  |  |  |  | 
12 | COc1ccc(N2CCN(c3nc(Nc4cc(C(C)(C)C)ccc4C)c4c(n3)nc(C)n4C)CC2(C)C)cc1 | 22 nM | 160 nM | 9.2 µM |  | 420 |  | 
13 | COCCCCN1CCN(c2nc(Nc3cc(C(C)(C)C)ccc3C)c3c(ncn3C)n2)CC1 | 870 nM | 4700 nM |  |  |  |  | 
14 | Cc1ccc(C(C)(C)C)cc1Nc1nc(N2CCN(Cc3ccncc3)CC2)nc2ncn(C)c12 | 12 nM | 130 nM | 9.1 µM |  | 760 |  | 
15 | Cc1ccc(C(C)(C)C)cc1Nc1nc(-c2ccc(Cc3ccncc3)cc2)nc2ncn(C)c12 | 800 nM | 1100 nM |  |  |  |  | 
16 | Cc1ccc(C(C)(C)C)cc1Nc1nc(N2CCC(c3ccncc3)CC2)nc2ncn(C)c12 | 350 nM | 1800 nM |  |  |  |  | 
17 | COc1ccc(N2CCN(c3nc(Nc4cc(C(C)(C)C)ccc4C)c4c(ncn4C)n3)CC2)cc1 | 39 nM | 730 nM | > 50 µM |  | > 1300 |  | 
18 | Cc1ccc(C(C)(C)C)cc1Nc1nc(N2CCC(n3ccnc3)CC2)nc2ncn(C)c12 | 340 nM | 1600 nM |  |  |  |  | 

The next lines start with results.

Row | IC50 [1] | IC50 [2] | IC50 [4] | concentration at 6 h [5] | Ratio IC50 [6] | concentration at 6 h [7] | Structure (SMILES) | inhibition in vivo at 100 mg/kg [3]
19 | 55 nM | 420 nM |  |  |  |  | COc1ccc(N2CCN(c3nc(Nc4cc(C(C)(C)C)ccc4C)c4c(ncn4CC(F)(F)F)n3)CC2(C)C)cc1 | 
20 | 750 nM | 3000 nM |  |  |  |  | COc1ccc(N2CCN(c3nc(Nc4cc(C(C)(C)C)ccc4C)c4[nH]ccc4n3)CC2(C)C)cc1 | 
21 | 67 nM | 400 nM | 22 µM |  | 330 |  | Cc1ccc(C(C)(C)C)cc1Nc1nc(NCCc2cnn(C)c2)nc2ncn(C)c12 | 
22 | 910 nM | 8000 nM |  |  |  |  | Cc1ccc(C(C)(C)C)cc1Nc1nc(N2CCN(CC3CCOCC3)CC2)nc2ncn(C)c12 | 
23 | 500 nM | 1100 nM |  |  |  |  | COc1ccc(NCCNc2nc(Nc3cc(C(C)(C)C)ccc3C)c3c(ncn3C)n2)cc1 | 
24 | 130 nM | 2600 nM |  |  |  |  | COc1ccc(N2CCN(c3nc(Nc4cc(C(C)(C)C)ccc4C)c4ncn(C)c4n3)CC2(C)C)cc1 | 
25 | 210 nM | 3100 nM |  |  |  |  | COc1ccc(N2CCN(c3nc(Nc4cc(C(C)(C)C)ccc4C)c4cccnc4n3)CC2(C)C)cc1 | 
26 | 50 nM | 350 nM |  |  |  |  | COc1ccc(N2CCN(c3nc(Nc4cc(C(C)(C)C)ccc4C)c4c(ncn4C(C)C)n3)CC2(C)C)cc1 | 
27 | 54 nM | 630 nM |  |  |  |  | Cc1ccc(C(C)(C)C)cc1Nc1nc(N2CCC(c3ccccc3)C2)nc2ncn(C)c12 (centres undefined) | 
